Four compounds from US8835427B2, “Fungicidal heterocyclic compounds” (priority 2010, dated 2014) can be followed below.

Marks after values point to notes of the source that are not given here.

Assay type in all cases: in vivo
In experiment [1] the test system is Plasmopara viticola. Kind of experiment: Test A: grape downy mildew, grape seedlings sprayed after inoculation, visual disease rating. The following applies: 40 ppm test suspension (asterisk); grape seedlings sprayed 24 h after inoculation with Plasmopara viticola; rating 100 = 100% disease control, 0 = no control relative to the controls.
For experiment [2], the system named is Phytophthora infestans. The following applies: 40 ppm test suspension (asterisk); tomato seedlings sprayed 17 h after inoculation with Phytophthora infestans; rating 100 = 100% disease control, 0 = no control relative to the controls.
Experiment [3] has as its system Phytophthora infestans. The following applies: 40 ppm test suspension (asterisk); tomato seedlings sprayed the day before inoculation with Phytophthora infestans; rating 100 = 100% disease control, 0 = no control relative to the controls.

For the compound `Cc1cc(C(F)(F)F)nn1CC(=O)N1CCC(c2nc(C3=NOC(c4c(F)cccc4F)C3)cs2)CN1` (stereo not drawn) [Compound 1, 1-[4-[4-[5-(2,6-difluorophenyl)-4,5-dihydro-3-isoxazolyl]-2-thiazolyl]tetrahydro-1(2H)-pyridazinyl]-2-[5-methyl-3-(trifluoromethyl)-1H-pyrazol-1-yl]ethanone], the “Test A rating (disease control, grape downy mildew)” value (from here on “Test A rating”) in experiment [1] is 99* %. In experiment [2], the “Test C rating (disease control, tomato late blight)” value (shortened to “Test C rating”) is reported as 99* %. The “Test B rating (disease control, tomato late blight)” value (“Test B rating” below) in experiment [3] is recorded as 100* %.
`CC(=O)N1CC(c2nc(C3=NOC(c4c(F)cccc4F)C3)cs2)CCN1C(=O)Cn1nc(C(F)(F)F)cc1C` (stereo not drawn) [Compound 2, 1-[2-Acetyl-4-[4-[5-(2,6-difluorophenyl)-4,5-dihydro-3-isoxazolyl]-2-thiazolyl]tetrahydro-1(2H)-pyridazinyl]-2-[5-methyl-3-(trifluoromethyl)-1H-pyrazol-1-yl]ethanone]: the “Test A rating” value in experiment [1] is listed as 89* %. The “Test C rating” value in experiment [2] was 98* %. In experiment [3], the “Test B rating” value is recorded as 100* %.
In the case of `Cc1cc(C(F)(F)F)nn1CC(=O)N1CCC(c2nc(C3=NOC(c4c(F)cccc4F)C3)cs2)CO1` (stereo not drawn) [Compound 3], in experiment [1], the “Test A rating” value is 100* %. For the same compound, the “Test C rating” value in experiment [2] is 99* %. Moreover, the “Test B rating” value in experiment [3] is listed as 100* %.
Take `Cc1cc(C(F)(F)F)nn1CC(=O)N1CC2CN(c3nc(C4=NOC(c5c(F)cccc5F)C4)cs3)CC2C1` (stereo not drawn) [Compound 4, 1-[5-[4-[5-(2,6-difluorophenyl)-4,5-dihydro-3-isoxazolyl]-2-thiazolyl]hexahydropyrrolol[3,4-c]pyrrol-2(1H)-yl]-2-[5-methyl-3-(trifluoromethyl)-1H-pyrazol-1-yl]ethanone]: the “Test A rating” value in experiment [1] is 99* %. For the same compound, in experiment [2], the “Test C rating” value is 99* %. For the same compound, the “Test B rating” value in experiment [3] is on record as 100* %.
